Assay results published in patent US12551459B2, “Combination of kynurenine and antigen presenting cells (APC) as therapeutics and methods for their use in immune modulation” (THE UNIVERSITY OF BRITISH COLUMBIA, priority 2014, dated 2026).

Tests used:
[1] = set-up: species or system mice; conditions: NOD (non-obese diabetic), mouse, in vivo, sc
Experimental: Non-obese diabetic (NOD) mice were intraperitoneal (IP) injected with normal fibroblasts (non-IDO-expressing, 2×10^7 cells per mouse) at the onset of hyperglycemia. Following IP fibroblast injection, the mice were given daily subcutaneous DL-kynurenine injections (20 μg/mouse). The blood glucose levels were monitored twice a week. For the controls, mice were either given only the IP fibroblast injection, or only the daily subcutaneous kynurenine injections as set out above, or were give no treatment at all.
Furthermore, in mouse 1 and mouse 2 (shown in FIG. 1) the subcutaneous kynurenine injections were stopped at 119 and 77 days post IP fibroblast injection, respectively, without a subsequent increase in blood glucose above 10 mM. Kyn injections were done daily because it was cleared from the blood within 8-10 hours. Glucose levels were monitored for up to 120 days, but control groups were sacrificed at earlier time points due to a high level of glucose and prevent the mice from suffering.

[2] = system: C3H/HeJ mice induced to develop alopecia areata (AA); experiment: Prevention of alopecia areata in C3H/HeJ mice by fibroblast + kynurenine treatment; type: in vivo
Experimental: Prevention of alopecia areata by combination fibroblast+kynurenine treatment: C3H/HeJ mice were induce to develop alopecia areata (AA) by intradermal injection of lymph node cells from AA affected mice. These mice (5 per group) then received either no treatment, a single-dose injection of 2×10^6 unmodified primary dermal fibroblasts to peritoneal cavity, oral kynurenine (added to drinking water, 100 μg/mL), or a combination therapy consisting of a) single-dose injection of 2×10^6 unmodified primary dermal fibroblasts to peritoneal cavity and b) oral kynurenine (added to drinking water, 100 μg/mL).

[3] = after 120 days, of Total mice per group

Row | cleared from the blood within [1] [h] | SMILES | hair loss pattern after 120 days ([2]; FIG. 4A) | AA (number of mice with alopecia areata) [2, 3] | Normal (number of mice) [2, 3] | Prevention (%) ([2]; prevention of AA)
1 | 8 to 10 | Nc1ccccc1C(=O)CC(N)C(=O)O (racemic) [Kyn, DL-kynurenine] | – | – | – | –
2 | – | Nc1ccccc1C(=O)CC(N)C(=O)O (centres unmarked) [FS1 alone, kynurenine] | some hair growth | 4 | 1 | 20
